Entries after “also recorded” stand apart in the source; their conditions may differ. Structures can show the parent of a compound that is named as a salt.
Experiments:
[1] = test system: Schistosoma mansoni adult worms; experiment: Viability of Schistosoma mansoni adult worms in vitro; type: cell-based, Schistosoma mansoni NMRI strain; conditions: 100 μg/mL, 37 °C; for Time to Kill 50% of Parasites / Time to Kill 100% of Parasites: adult worms in RPMI 1640/Tween 80/DMSO, observed up to 72 h, duplicate wells; for Activity/toxicity towards schistosomes (in words): adult worms
Description: Experiments on the viability of Schistosoma mansoni adult worms. In vitro tests were performed on Schistosoma mansoni NMRI strains. This parasite is lab maintained on Biomphalaria glabrata (BRE strain) as intermediate mollusc host and Golden Hamster (Janvier Labs, Le Genest-Saint-Isle, France) as definitive vertebrate host. Methods, for molluscs’ and hamsters’ infection and for parasite recovery, were previously described. Adult worms were recovered by hepatic perfusion technique between 42 and 47 days post hamster exposition to parasite larvae. Worms were carefully collected and disposed in 12-well Falcon® plate containing 2 mL of RPMI 1640 (supplemented with L-glutamine and Hepes 25 mM). The plates containing a minimum of 15 worms by well were then placed in an incubator chamber at 37 °C and 5% CO2. The worms sex ratio was almost balanced in each well. The drug was first dissolved in DMSO (Sigma-Aldrich) to give a 100 mg/mL mother solution. Then the stock solution was complemented with Tween 80 and RPMI to obtain the following final ratio dilution: RPMI 1640/Tween 80/DMSO and 1000/0.95/3.8, v/v/v.
All molecules were tested at a final concentration of 100 µg/mL and 10 µg/mL. A negative control consisted in adding the same RPMI 1640/Tween 80/DMSO solution, but without any drug and a positive control consisted in adding praziquantel. All molecules and control were performed in duplicates of well. The worm viability was checked after 1, 2, 3, 4, 5, 6, 7, 8, 24, 48, and 72 h after adding the molecule.

[2] = Homolysis kinetics of alkoxyamines by EPR (growth of nitroxide); type: physicochemical; conditions: mixture of diastereoisomers; for Homolysis rate constant kd: 0.1 mM alkoxyamine, O2 as alkyl radical scavenger; for Activation energy Ea: by Equation (2) from kd and T, A = 2.4 10^14 s^−1
Description: Preparation of alkoxyamines and reference samples. All reagents including anhydrous solvents used for the chemical synthesis were purchased from commercially available sources such as Merck, TCI, and Fluorochem, and were used without further purification. All air and/or water-sensitive reactions were carried out under an argon atmosphere with dry solvents using standard syringe-cannula/septa techniques. Routine monitoring of reactions was performed using Merck Silica gel 60 F254, aluminum-supported TLC plates; spots were visualized using UV light and ethanolic acidic para-anisaldehyde solution or ethanolic phosphomolybdic solution, followed by heating. Purifications by means of column chromatography were performed with Silica gel 60 (230–400 mesh). ^1H, ^13C, and ^19F NMR spectra were obtained in CDCl3, MeOD (with residual H2O), D2O, DMSO-d6, or C6D6 solutions on by using Bruker AC400 (400 MHz) and Bruker AC300 (300 MHz) spectrometers. High-resolution mass spectra (HRMS) have been performed using a SYNAPT G2 HDMS (Waters) mass spectrometer equipped with a pneumatically assisted atmospheric pressure ionization (API) source. The sample was ionized in positive electrospray mode under the following conditions: electrospray voltage: 2.8 kV; port voltage: 20 V; Nebulizing gas flow rate (nitrogen): 100 L/h or in negative electrospray mode under the following conditions: electrospray voltage: −2.27 kV; port voltage: −20 V; Nebulizing gas flow rate (nitrogen): 100 L/h. The mass spectra (MS) were obtained with a time-of-flight (TOF) analyzer. The exact mass measurements were carried out in triplicate with external calibration. Homolysis constants were measured by EPR on an EMX Bruker spectrometer from 10^−4 M samples in tertbutyl benzene or in a mixture of H2O-nPrOH (1:1; v:v).
Kinetic experiments. Kinetics of A1–A7 (Scheme 2) for series L and D are performed by monitoring the growth of nitroxide by Electron Paramagnetic Resonance (X-band EMX Bruker machine) in tert-butylbenzene and a water/n-PrOH (for a good solubility of the alkoxyamine) as solvents and using O2 as alkyl radical scavenger to suppress the back reaction (kc in Scheme 2) as already reported. Homolysis rate constants kd are given by Equation (1) ([nitroxide]∞ = [alkoxyamine]0 = 0.1 mM, see Table S1) and the subsequent activation energies Ea given by Equation (2). (1) lnnitroxide∞−nitroxidet/nitroxide∞=−kd·t, (2) Ea=−RTlnkd/A.

[3] = C–ON bond homolysis in t-BuPh, EPR, T (°C): A1L 128.0, A3L 125.0, A5L 130.0, A6L 125, A7L 126.5, A1D 122.5, A3D 119.8, A5D 130
[4] = C–ON bond homolysis in water/n-PrOH v/v 1:1, EPR, T (°C): A1L 95.1, A3L 94.5, A4L 94.6, A5L 94.0, A6L 94.8, A7L 94.3, A1D 93.5, A3D 92.6, A4D 95.0, A5D 94.6

Compound | Time to Kill 50% of Parasites [1] [h] | Time to Kill 100% of Parasites [1] [h] | Activity/toxicity towards schistosomes (in words) [1] | Homolysis rate constant kd [2, 3] | Homolysis rate constant kd [2, 4] | Activation energy Ea ([2]; in t-BuPh) [kJ/mol] | Activation energy Ea ([2]; in water/n-PrOH v/v 1:1) [kJ/mol] | Time to Kill 50% of Parasites ([1]; listed as praziquantel) [h]
4-(((S)-1-(((S)-1-(((S)-1-carboxy-2-phenylethyl)amino)-3-methyl-1-oxobutan-2-yl)amino)-1-oxo-3-phenylpropan-2-yl)amino)-4-oxobutanoic acid [P10L] | 6 | 24 | some activity towards schistosomes |  |  |  |  | 
CC(ON1C(C)(C)CCCC1(C)C)c1ccc(NC(=O)[C@@H](Cc2ccccc2)NC(=O)OC(C)(C)C)cc1 (mixture of isomers) [A1D, tert-butyl ((2R)-1-oxo-3-phenyl-1-((4-(1-((2,2,6,6-tetramethylpiperidin-1-yl)oxy)ethyl)phenyl)amino)propan-2-yl)carbamate] |  |  |  | 9.6 10^−4 s^−1 | 1.0 10^−4 s^−1 | 132.2 | 129.0 | 
CC(ON1C(C)(C)CCCC1(C)C)c1ccc(NC(=O)[C@H](Cc2ccccc2)NC(=O)OC(C)(C)C)cc1 (mixture of isomers) [A1L, tert-butyl ((2S)-1-oxo-3-phenyl-1-((4-(1-((2,2,6,6-tetramethylpiperidin-1-yl)oxy)ethyl)phenyl)amino)propan-2-yl)carbamate] |  |  |  | 11.0 10^−4 s^−1 | 1.5 10^−4 s^−1 | 133.1 | 128.4 | 
CC(ON1C(C)(C)CCCC1(C)C)c1ccc(NC(=O)[C@H](Cc2ccccc2)NC(=O)[C@@H](NC(=O)[C@H](Cc2ccccc2)NC(=O)OC(C)(C)C)C(C)C)cc1 (stereo partly drawn) [A3L, tert-butyl ((2S)-1-(((2S)-3-methyl-1-oxo-1-(((2S)-1-oxo-3-phenyl-1-((4-(1-((2,2,6,6-tetramethylpiperidin-1-yl)oxy)ethyl)phenyl)amino)propan-2-yl)amino)butan-2-yl)amino)-1-oxo-3-phenylpropan-2-yl)carbamate] |  |  | inactive; also recorded: non-activity | 8.4 10^−4 s^−1 | 1.8 10^−4 s^−1 | 133.0 | 128.8 | 
CC(ON1C(C)(C)CCCC1(C)C)c1ccc(NC(=O)[C@H](Cc2ccccc2)NC(=O)[C@@H](NC(=O)[C@@H](N)Cc2ccccc2)C(C)C)cc1.O=C(O)C(F)(F)F (stereo partly drawn) [A4L, (2S)-1-(((2S)-3-methyl-1-oxo-1-(((2S)-1-oxo-3-phenyl-1-((4-(1-((2,2,6,6-tetramethylpiperidin-1-yl)oxy)ethyl)phenyl)amino)propan-2-yl)amino)butan-2-yl)amino)-1-oxo-3-phenylpropan-2-aminium trifluoroacetate] | 2 | 24 | most efficient molecules |  | 1.0 10^−4 s^−1 |  | 129.3 | 
CC(ON1C(C)(C)CCCC1(C)C)c1ccc(NC(=O)[C@H](Cc2ccccc2)NC(=O)[C@@H](NC(=O)[C@@H](N)Cc2ccccc2)C(C)C)cc1 (stereo partly drawn) [A5L, (2S)-2-((S)-2-amino-3-phenylpropanamido)-3-methyl-N-((2S)-1-oxo-3-phenyl-1-((4-(1-((2,2,6,6-tetramethylpiperidin-1-yl)oxy)ethyl)phenyl)amino)propan-2-yl)butanamide] | 2 | 7 | most efficient molecules | 18 10^−4 s^−1 | 1.3 10^−4 s^−1 | 132.1 | 128.3 | 
CC(ON1C(C)(C)CCCC1(C)C)c1ccc(NC(=O)[C@H](Cc2ccccc2)NC(=O)[C@@H](NC(=O)[C@H](Cc2ccccc2)NC(=O)CCC(=O)OCc2ccccc2)C(C)C)cc1 (stereo partly drawn) [A6L, Benzyl 4-(((2S)-1-(((2S)-3-methyl-1-oxo-1-(((2S)-1-oxo-3-phenyl-1-((4-(1-((2,2,6,6-tetramethylpiperidin-1-yl)oxy)ethyl)phenyl)amino)propan-2-yl)amino)butan-2-yl)amino)-1-oxo-3-phenylpropan-2-yl)amino)-4-oxobutanoate] | 24 | 48 | less active; also recorded: lower activity | 11.0 10^−4 s^−1 | 1.1 10^−4 s^−1 | 132.1 | 129.1 | 
CC(ON1C(C)(C)CCCC1(C)C)c1ccc(NC(=O)[C@H](Cc2ccccc2)NC(=O)[C@@H](NC(=O)[C@H](Cc2ccccc2)NC(=O)CCC(=O)O)C(C)C)cc1 (stereo partly drawn) [A7L, 4-(((2S)-1-(((2S)-3-methyl-1-oxo-1-(((2S)-1-oxo-3-phenyl-1-((4-(1-((2,2,6,6-tetramethylpiperidin-1-yl)oxy)ethyl)phenyl)amino)propan-2-yl)amino)butan-2-yl)amino)-1-oxo-3-phenylpropan-2-yl)amino)-4-oxobutanoic acid] | 24 | 48 | less active | 15.0 10^−4 s^−1 |  | 131.6 | 129.4 | 
O=C(C1CCCCC1)N1CC(=O)N2CCc3ccccc3C2C1 (stereo not drawn) [PZQ, praziquantel, reference compound] | 1 | 1 |  |  |  |  |  | < 1
O=C(O)C(F)(F)F [TFA, reference compound] | 7 | 24 |  |  |  |  |  | 
(S)-1-(((S)-1-(((S)-1-((4-ethylphenyl)amino)-1-oxo-3-phenylpropan-2-yl)amino)-3-methyl-1-oxobutan-2-yl)amino)-1-oxo-3-phenylpropan-2-aminium trifluoroacetate [P22L] |  |  | no activity |  |  |  |  | 
(S)-1-(((S)-1-(((S)-1-carboxy-2-phenylethyl)amino)-3-methyl-1-oxobutan-2-yl)amino)-1-oxo-3-phenylpropan-2-aminium trifluoroacetate [P11L] |  |  | no activity |  |  |  |  | 
(S)-2-((S)-2-amino-3-phenylpropanamido)-N-((S)-1-((4-ethylphenyl)amino)-1-oxo-3-phenylpropan-2-yl)-3-methylbutanamide [P25L] |  |  | no activity |  |  |  |  | 
Benzyl 4-(((S)-1-(((S)-1-(((S)-1-((4-ethylphenyl)amino)-1-oxo-3-phenylpropan-2-yl)amino)-3-methyl-1-oxobutan-2-yl)amino)-1-oxo-3-phenylpropan-2-yl)amino)-4-oxobutanoate [P23L] |  |  | no activity |  |  |  |  | 
L-phenylalanyl-L-valyl-L-phenylalanine [P18L] |  |  | no activity |  |  |  |  | 
